Assay results as given in patent US20250049036A1 (priority 2021, published 2025).

Experiments:
[1] = tested on: Pyricularia oryzae; test: microbe, parasite or virus in culture; assay type: cell-based; settings: 168 h, read-out: control compared to the untreated check
[2] = tested on: Colletotrichum capsici; test: Colletotrichum capsici (anthracnose) mycelial radial growth on potato dextrose agar; assay type: cell-based; settings: Colletotrichum truncatum, 168 h, 25° C., seven days, read-out: control compared to the untreated check
Method: The compounds were dissolved in 0.3% dimethyl sulfoxide and then added to potato dextrose agar medium just prior to dispensing it into petri dishes. 5 mL medium, with the compound in the desired concentration, was dispensed into 60 mm sterile petri-plates. After solidification, each plate was seeded with a 5 mm size mycelial disc taken from the periphery of an actively growing virulent culture plate. The plates were incubated in growth chambers at 25° C. temperature and 60% relative humidity for seven days and the radial growth was measured and compared to the one of the untreated control.

[3] = tested on: Parastagonospora nodorum; test: Parastagonospora nodorum (PARANO) spore growth inhibition in liquid medium, 96-well microtiter plate, OD 600; assay type: cell-based; settings: spore suspension in PDB liquid medium, 18° C., 5-6 days, OD at 600, read-out: control compared to the untreated check
Method: Potato dextrose (PDB) liquid medium (Difco) containing a PARANO (10^5 spores/ml) spore suspension was prepared. For the inhibition assay, each test compound was solved in dimethyl sulfoxide. 100 μl of the test compound in media-solution was added to a 96-well microtiter plate, consequently, the same volume (100 μl) of spore suspension was added to the well making the final test concentrations and the plate was incubated at 18° C. for 5-6 days. The growth inhibition was evaluated by measuring the OD at 600. Percent inhibition was calculated with the below formula: […]

[4] = tested on: Botrytis cinerea; test: Botrytis cinerea liq. (BOTRCI) spore growth inhibition in liquid medium, 96-well microtiter plate, OD 405 nm; assay type: cell-based; settings: spore suspension in YBA liquid medium, 22° C., 5-6 days, OD at 405 nm, read-out: control compared to the untreated check
Method: Yeast bacterial peptone and sodium acetate (YBA) liquid medium containing a BOTRCI (10^4 spores/ml) spore suspension was prepared. For the inhibition assay, each test compound was solved in dimethyl sulfoxide. 100 μl of the test compound in media-solution was added to a 96-well microtiter plate, consequently, the same volume (100 μl) of spore suspension was added to the well making the final test concentrations and the plate was incubated at 22° C. for 5-6 days. The growth inhibition was evaluated by measuring the OD at 405 nm. Percent inhibition was calculated with the below formula:
Where T=treatment, C=control, and B=blank

[5] = tested on: Botrytis cinerea; test: Botrytis cinerea test on tomato, preventive, greenhouse; assay type: in vivo; settings: preventive spray on bean/chili plants (heading: tomato), inoculated one day after treatment, read-out: control (efficacy, disease severity) compared to the untreated check
[6] = tested on: Phakopsora pachyrhizi; test: Phakopsora pachyrhizi test on soybean, preventive, greenhouse; assay type: in vivo; settings: preventive spray on soybean, inoculated one day after treatment, read-out: control (efficacy, disease severity) compared to the untreated check
Method: The respective compound was dissolved in 2% dimethyl sulfoxide/acetone and then mixed with water containing emulsifier to the calibrated spray volume of 30 mL. Each spray solution was poured into a spray bottle for further application.
To test the preventive activity of a compound, healthy young soybean plants, raised in the greenhouse, were sprayed with the active compound preparation at the stated application rate inside the spray cabinets using hollow cone nozzles. One day after treatment, the plants were inoculated with a conidial suspension containing 2×10^5 Phakopsora pachyrhizi inoculum. The inoculated plants were then kept in a greenhouse chamber at 22-24° C. temperature and 80-90% relative humidity for disease expression.

[7] = tested on: Phytophthora infestans; test: microbe, parasite or virus in culture; assay type: cell-based; settings: 168 h, read-out: control compared to the untreated check

Compound | inhibition of growth at 300 ppm [4] [%] | pest or weed control at 500 ppm [5] [%] | pest or weed control at 500 ppm [6] [%] | other results
CC(c1ccccc1)C(C)(C)NC(=O)c1cnc2c(ccn2C)c1 (stereo not drawn) [Compound 8, 1-methyl-N-(2-methyl-3-phenylbutan-2-yl)-1H-pyrrolo[2,3-b] pyridine-5-carboxamide] | ≥ 70 | – | – | inhibition of growth at 300 ppm [1]: ≥ 70%; inhibition of growth at 300 ppm [2]: ≥ 70%; inhibition of growth at 300 ppm [3]: ≥ 70%
Cn1ccc2cc(C(=O)NC(C)(C)Cc3ccc(F)cc3F)cnc21 [Compound 20] | ≥ 70 | – | – | inhibition of growth at 300 ppm [1]: ≥ 70%; inhibition of growth at 300 ppm [2]: ≥ 70%
Cn1cc(Br)c2cc(C(=O)NC(C)(C)Cc3ccccc3)cnc21 [Compound 46] | – | ≥ 70 | ≥ 70 | inhibition of growth at 300 ppm [1]: ≥ 70%
Cn1cc(C2CC2)c2cc(C(=O)NC(C)(C)Cc3ccccc3)cnc21 [Compound 54, 3-cyclopropyl-1-methyl-N-(2-methyl-1-phenylpropan-2-yl)-1H-pyrrolo[2,3-b] pyridine-5-carboxamide] | – | ≥ 70 | ≥ 70 | –
CN(C(=O)c1cnc2c(c1)c(C1CC1)cn2C)C(C)(C)Cc1ccccc1 [Compound 57, 3-cyclopropyl-N,1-dimethyl-N-(2-methyl-1-phenylpropan-2-yl)-1H-pyrrolo[2,3-b] pyridine-5-carboxamide] | – | ≥ 70 | ≥ 70 | –
Cn1cc(F)c2cc(C(=O)NC(C)(C)Cc3ccc(Cl)cc3)cnc21 [Compound 66, N-(1-(4-chlorophenyl)-2-methylpropan-2-yl)-3-fluoro-1-methyl-1H-pyrrolo[2,3-b]pyridine-5-carboxamide] | – | ≥ 70 | ≥ 70 | –
Cn1ccc2cc(C(=O)NC3Cc4ccccc4C3)cnc21 [Compound 76, N-(2,3-dihydro-1H-inden-2-yl)-1-methyl-1H-pyrrolo[2,3-b] pyridine-5-carboxamide] | – | ≥ 70 | ≥ 70 | –
Cn1cc(Br)c2cc(C(=O)NC(C)(C)Cc3ccccc3Cl)cnc21 [Compound 84, 3-bromo-N-(1-(2-chlorophenyl)-2-methylpropan-2-yl)-1-methyl-1H-pyrrolo[2,3-b]pyridine-5-carboxamide] | – | ≥ 70 | ≥ 70 | –
COc1nc2c(ccn2C)cc1C(=O)NC(C)(C)Cc1ccccc1 [Compound 91, 6-methoxy-1-methyl-N-(2-methyl-1-phenylpropan-2-yl)-1H-pyrrolo[2,3-b] pyridine-5-carboxamide] | – | – | – | inhibition of growth at 300 ppm [7]: ≥ 70%
Cc1nc2[nH]ccc2cc1C(=O)NC(C)(Cc1ccccc1)CC(C)C (stereo not drawn) [Compound 96, N-(2,4-dimethyl-1-phenylpentan-2-yl)-6-methyl-1H-pyrrolo[2,3-b]pyridine-5-carboxamide] | – | ≥ 70 | ≥ 70 | –
Cc1nc2[nH]ccc2cc1C(=O)NC1(Cc2ccccc2)CC1 [Compound 97, N-(1-benzylcyclopropyl)-6-methyl-1H-pyrrolo[2,3-b]pyridine-5-carboxamide] | – | ≥ 70 | ≥ 70 | –
CC(C)(CO)NC(=O)c1cnc2ccsc2c1 [Compound 111, N-(1-hydroxy-2-methylpropan-2-yl)thieno[3,2-b] pyridine-6-carboxamide] | – | – | – | inhibition of growth at 300 ppm [7]: ≥ 70%
Cc1cccc(CC(NC(=O)c2cnc3ccsc3c2)C(C)(C)O)c1 (stereo not drawn) [Compound 114, N-(3-hydroxy-3-methyl-1-(m-tolyl)butan-2-yl)thieno[3,2-b] pyridine-6-carboxamide] | – | – | – | inhibition of growth at 300 ppm [7]: ≥ 70%
C=C(C)CC(C)(COc1ccc(F)cc1)NC(=O)c1cnc2ccsc2c1 (stereo not drawn) [Compound 122, N-(1-(4-fluorophenoxy)-2,4-dimethylpent-4-en-2-yl)thieno[3,2-b] pyridine-6-carboxamide] | – | ≥ 70 | – | inhibition of growth at 300 ppm [2]: ≥ 70%
COc1cc(C(O)C(C)(C)NC(=O)c2cnc3c(ccn3C)c2)ccc1F (stereo not drawn) [Compound 123, N-(1-(4-fluoro-3-methoxyphenyl)-1-hydroxy-2-methylpropan-2-yl)-1-methyl-1H-pyrrolo[2,3-b]pyridine-5-carboxamide] | – | – | – | inhibition of growth at 300 ppm [7]: ≥ 70%
COc1cc(C(=O)OCC(C)(C)NC(=O)c2cnc3ccsc3c2)ccc1F [Compound 124, 2-methyl-2-(thieno[3,2-b]pyridine-6-carboxamido)propyl 4-fluoro-3-methoxybenzoate] | – | ≥ 70 | – | inhibition of growth at 300 ppm [1]: ≥ 70%; inhibition of growth at 300 ppm [3]: ≥ 70%
CC(C)(COC(=O)c1ccccc1C(F)(F)F)NC(=O)c1cnc2c(c1)CCCC2 [Compound 150, 2-methyl-2-(5,6,7,8-tetrahydroquinoline-3-carboxamido)propyl 2-(trifluoromethyl)benzoate] | – | ≥ 70 | ≥ 70 | inhibition of growth at 300 ppm [3]: ≥ 70%
CC(C)(COC(=O)c1cccc(F)c1)NC(=O)c1cnc2cc[nH]c2c1 [Compound 156, 2-methyl-2-(1H-pyrrolo[3,2-b]pyridine-6-carboxamido)propyl 3-fluorobenzoate] | – | – | – | inhibition of growth at 300 ppm [7]: ≥ 70%
Cn1cc(Br)c2cc(C(=O)NC(C)(C)COCc3ccccc3C#N)cnc21 [Compound 196] | – | – | – | inhibition of growth at 300 ppm [7]: ≥ 70%
Cc1ccc(COCC(C)(C)NC(=O)c2cnc3c(c2)c(Br)cn3C)c(C)c1 [Compound 201, 3-bromo-N-(1-((2,4-dimethylbenzyl)oxy)-2-methylpropan-2-yl)-1-methyl-1H-pyrrolo[2,3-b]pyridine-5-carboxamide] | – | – | – | inhibition of growth at 300 ppm [7]: ≥ 70%
CC(C)(COc1ccc(F)cn1)NC(=O)c1cnc2ccsc2c1 [Compound 207, N-(1-((5-fluoropyridin-2-yl)oxy)-2-methylpropan-2-yl)thieno[3,2-b] pyridine-6-carboxamide] | – | – | – | inhibition of growth at 300 ppm [7]: ≥ 70%
Cn1cc(Cl)c2cc(C(=O)NC(C)(C)COc3ccccn3)cnc21 [Compound 219, 3-chloro-1-methyl-N-(2-methyl-1-(pyridin-2-yloxy)propan-2-yl)-1H-pyrrolo[2,3-b] pyridine-5-carboxamide] | ≥ 70 | – | – | inhibition of growth at 300 ppm [1]: ≥ 70%
Cn1cc(Cl)c2cc(C(=O)NC(C)(C)COc3ccc(F)cn3)cnc21 [Compound 221, 3-chloro-N-(1-((5-fluoropyridin-2-yl)oxy)-2-methylpropan-2-yl)-1-methyl-1H-pyrrolo[2,3-b]pyridine-5-carboxamide] | ≥ 70 | – | – | –
Cn1cc(Br)c2cc(C(=O)NC(C)(C)COCc3cc(F)ccc3Cl)cnc21 [Compound 232, 3-bromo-N-(1-((2-chloro-5-fluorobenzyl)oxy)-2-methylpropan-2-yl)-1-methyl-1H-pyrrolo[2,3-b]pyridine-5-carboxamide] | ≥ 70 | – | – | inhibition of growth at 300 ppm [3]: ≥ 70%
CON(C(=O)c1cnc2c(ccn2C)c1)C(C)Cc1ccccc1F (stereo not drawn) [Compound 239, N-(1-(2-fluorophenyl)propan-2-yl)-N-methoxy-1-methyl-1H-pyrrolo[2,3-b]pyridine-5-carboxamide] | ≥ 70 | – | – | inhibition of growth at 300 ppm [1]: ≥ 70%; inhibition of growth at 300 ppm [3]: ≥ 70%
CC(C)(COc1ccccn1)NC(=O)c1cc2c(nc1Cl)CCC2 [Compound 242, 2-chloro-N-(2-methyl-1-(pyridin-2-yloxy)propan-2-yl)-6,7-dihydro-5H-cyclopenta[b]pyridine-3-carboxamide] | ≥ 70 | – | – | –
CC(C)(COc1ccnc(Cl)c1)NC(=O)c1cc2c(nc1Cl)CCC2 [Compound 244, 2-chloro-N-(1-((2-chloropyridin-4-yl)oxy)-2-methylpropan-2-yl)-6,7-dihydro-5H-cyclopenta[b]pyridine-3-carboxamide] | ≥ 70 | – | – | inhibition of growth at 300 ppm [3]: ≥ 70%
COc1nc2c(cc1C(=O)NCC1(c3ccccc3)CC1)CCC2 [Compound 247, 2-methoxy-N-((1-phenylcyclopropyl)methyl)-6,7-dihydro-5H-cyclopenta[b]pyridine-3-carboxamide] | ≥ 70 | – | – | inhibition of growth at 300 ppm [2]: ≥ 70%; inhibition of growth at 300 ppm [3]: ≥ 70%
